Data as given in patent US8295924B2, “Transdermal systems for the delivery of ionic agents directly to open wounds and surgically repaired incisions” (Teikoku Pharma USA, Inc., priority 2006, dated 2012).

Settings: hairless rats, pad saturated with 4% lidocaine, 2 cm^2 delivery pad, 0.3 mA for 24 hours, active iontophoretic probe; for the entire 24-hour period
Excerpt: An incision was made in hairless rats, which was then sutured closed.

Concentration of lidocaine generated in the incision: sufficient to cause anesthesia
Compound: CCN(CC)CC(=O)Nc1c(C)cccc1C [lidocaine]
